Each compound was assayed on HCV replicon (assay: HCV replicon luciferase assay). Conditions: Hepatitis C virus, Huh-7, 72 h.
Format: cell-based
Description: Cell lines. The cell lines used to evaluate compounds consist of a human hepatocyte derived cell line (Huh-7) that constitutively expresses a genotype 1b (Con-1) HCV replicon or a genotype 1b (Con-1) HCV replicon with an asparagine replacing the cysteine at amino acid 316, or a genotype 2a (JFH-1) replicon, containing a Renilla luciferase reporter gene. These cells were maintained in Dulbecco's modified Eagle medium (DMEM) containing 10% FBS, 100 U/mL penicillin/streptomycin and 1.0 mg/mL G418.
HCV replicon luciferase assay. To evaluate compound efficacy, titrated compounds were transferred to sterile 384-well tissue culture treated plates, and the plates were seeded with HCV replicon cells (50 μL at a density of 2.4×10^3 cells/well) in DMEM containing 4% FBS (final DMSO concentration at 0.5%). After 3 days incubation at 37° C., cells were analyzed for Renilla Luciferase activity using the EnduRen substrate (Promega cat #E6485) according to the manufacturer's directions. Briefly, the EnduRen substrate was diluted in DMEM and then added to the plates to a final concentration of 7.5 μM. The plates were incubated for at least 1 h at 37° C. then read on a Viewlux Imager (PerkinElmer) using a luminescence program. The 50% effective concentration (EC50) was calculated using the four-parameter logistic formula noted above.
`CCN(CC)c1cc2oc(-c3ccc(F)cc3)c(C(=O)NC)c2cc1-c1cccc(C(=O)NCC2(C)COC2)c1` [Compound 1036] was tested, and the EC50 was 26.6 nM.
With `CCN(CC)c1cc2oc(-c3ccc(F)cc3)c(C(=O)NC)c2cc1-c1cccc(C(=O)N[C@H]2C3CCC(C3)[C@H]2C(=O)O)c1` (stereo partly shown) [Compound 1038] the EC50 was 100 to 1000 nM.
Work on `CCN(CC)c1cc2oc(-c3ccc(F)cc3)c(C(=O)NC)c2cc1-c1cccc(C(=O)N[C@H]2CCCC[C@H]2C(=O)O)c1` [Compound 1047] yielded an EC50 of less than 100 nM.
`CCN(CC)c1cc2oc(-c3ccc(F)cc3)c(C(=O)NC)c2cc1-c1cccc(C(=O)NC(CO)(CO)CO)c1` [Compound 3005] gave an EC50 of less than 100 nM.
For `CCN(CC)c1cc2oc(-c3ccc(F)cc3)c(C(=O)NC)c2cc1-c1cccc(C(=O)NC2CCC(O)C2)c1` (stereo not shown) [Compound 1006], the EC50 was 44.5 nM.
`CCN(CC)c1cc2oc(-c3ccc(F)cc3)c(C(=O)NC)c2cc1-c1cccc(C(=O)N[C@H]2CCC[C@H]2C(=O)N[C@H]2CCC[C@H]2C(=O)O)c1` [Compound 1042] gave an EC50 of 100 to 1000 nM.
With `CC[C@H](COCc1ccccc1)NC(=O)c1cccc(-c2cc3c(C(=O)NC)c(-c4ccc(F)cc4)oc3cc2N(CC)CC)c1` [Compound 1024] the EC50 was 100 to 1000 nM.
`CCN(CC)c1cc2oc(-c3ccc(F)cc3)c(C(=O)NC)c2cc1-c1cccc(C(=O)NCCCn2cncn2)c1` [Compound 1013] was tested, and the EC50 was less than 100 nM.
Work on `CCN(CC)c1cc2oc(-c3ccc(F)cc3)c(C(=O)NC)c2cc1-c1cccc(C(=O)N[C@H]2C(O)O[C@H](CO)[C@@H](O)[C@@H]2O)c1` (stereo partly shown) [Compound 1001] yielded an EC50 of 2820 nM.
In the case of `CCN(CC)c1cc2oc(-c3ccc(F)cc3)c(C(=O)NC)c2cc1-c1cccc(C(=O)NC2CCNC2=O)c1` (stereo not shown) [Compound 1026], the EC50 is reported as 11.1 nM.
`CCN(CC)c1cc2oc(-c3ccc(F)cc3)c(C(=O)NC)c2cc1-c1cccc(C(=O)NC2CNC(=O)C2)c1` (stereo not shown) [Compound 1027] gave an EC50 of less than 100 nM.
For `CCN(CC)c1cc2oc(-c3ccc(F)cc3)c(C(=O)NC)c2cc1-c1cccc(C(=O)NCCCOc2ccccc2)c1` [Compound 1022], the EC50 was less than 100 nM.
Compound `CCNc1cc2oc(-c3ccc(F)cc3)c(C(=O)NC)c2cc1-c1cccc(C(=O)NCC(C)(C)C#N)c1` [Compound 4002] has an EC50 of less than 100 nM.
`CCOP(=O)(CCCNC(=O)c1cccc(-c2cc3c(C(=O)NC)c(-c4ccc(F)cc4)oc3cc2N(CC)CC)c1)OCC` [Compound 1015] showed an EC50 of less than 100 nM.
`CCN(CC)c1cc2oc(-c3ccc(F)cc3)c(C(=O)NC)c2cc1-c1cccc(C(=O)NCCOCc2ccccc2)c1` [Compound 1025] showed an EC50 of less than 100 nM.
With `CCN(CC)c1cc2oc(-c3ccc(F)cc3)c(C(=O)NC)c2cc1-c1cccc(C(=O)NCCOc2ccccc2)c1` [Compound 1023] the EC50 was less than 100 nM.
`CCN(CC)c1cc2oc(-c3ccc(F)cc3)c(C(=O)NC)c2cc1-c1cccc(C(=O)N[C@]2(C)[C@H](C(=O)OC)C[C@@H]3C[C@H]2C3(C)C)c1` [Compound 1032] showed an EC50 of less than 100 nM.
Work on `CNC(=O)c1c(-c2ccc(F)cc2)oc2cc(N(CCF)S(C)(=O)=O)c(-c3cccc(C(=O)NCC4CCCC4NC(=O)OC(C)(C)C)c3)cc12` (stereo not shown) [Compound 7001] yielded an EC50 of less than 100 nM.
In the case of `CCN(CC)c1cc2oc(-c3ccc(F)cc3)c(C(=O)NC)c2cc1-c1cccc(C(=O)N[C@@H]2CCCC[C@H]2C(=O)N[C@@H]2CCCC[C@H]2C(=O)O)c1` [Compound 1045], the EC50 is reported as greater than 1000 nM.
Compound `CCN(CC)c1cc2oc(-c3ccc(F)cc3)c(C(=O)NC)c2cc1-c1cccc(C(=O)N[C@@]23C[C@@H]4C[C@@H](C[C@@](O)(C4)C2)C3)c1` [Compound 1034] has an EC50 of less than 100 nM.
`CCN(c1cc2oc(-c3ccc(F)cc3)c(C(=O)NC)c2cc1-c1cccc(C(=O)NC2(C#N)CCN(C(=O)OC(C)(C)C)CC2)c1)S(C)(=O)=O` [Compound 5005] gave an EC50 of less than 100 nM.
`CCN(CC)c1cc2oc(-c3ccc(F)cc3)c(C(=O)NC)c2cc1-c1cccc(C(=O)N[C@H]2CCC[C@H]2C(=O)O)c1` [Compound 1041] was tested, and the EC50 was 135 nM.
`CCN(CC)c1cc2oc(-c3ccc(F)cc3)c(C(=O)NC)c2cc1-c1cccc(C(=O)NCC2(Cn3cccn3)CC2)c1` [Compound 1011] was tested, and the EC50 was 26.1 nM.
`CCN(CC)c1cc2oc(-c3ccc(F)cc3)c(C(=O)NC)c2cc1-c1cccc(C(=O)NCS(=O)(=O)O)c1` [Compound 1040] gave an EC50 greater than 1000 nM.
Work on `CNC(=O)c1c(-c2ccc(F)cc2)oc2cc(N)c(-c3cccc(C(=O)NC(CO)(CO)CO)c3)cc12` [Compound 3003] yielded an EC50 greater than 1000 nM.
Compound `CCN(CC)c1cc2oc(-c3ccc(F)cc3)c(C(=O)NC)c2cc1-c1cccc(C(=O)NCc2ccccc2C(=O)OC)c1` [Compound 1010] has an EC50 of less than 100 nM.
`CCN(c1cc2oc(-c3ccc(F)cc3)c(C(=O)NC)c2cc1-c1cccc(C(=O)NC2(C#N)CCOCC2)c1)S(C)(=O)=O` [Compound 5007] showed an EC50 of 4.2 nM.
`CCNc1cc2oc(-c3ccc(F)cc3)c(C(=O)NC)c2cc1-c1cccc(C(=O)NC2CCNC2=O)c1` (stereo not shown) [Compound 4001] was tested, and the EC50 was 58.8 nM.
Work on `CCNc1cc2oc(-c3ccc(F)cc3)c(C(=O)NC)c2cc1-c1cccc(C(=O)NC2(C#N)CCN(Cc3ccccc3)CC2)c1` [Compound 4004] yielded an EC50 of less than 100 nM.
With `CCN(c1cc2oc(-c3ccc(F)cc3)c(C(=O)NC)c2cc1-c1cccc(C(=O)NC2(C#N)CCc3cc(OC)ccc3C2)c1)S(C)(=O)=O` (stereo not shown) [Compound 5006] the EC50 was less than 100 nM.
For `CNC(=O)c1c(-c2ccc(F)cc2)oc2cc([N+](=O)[O-])c(-c3cccc(C(=O)N(Cc4ccc(OC)cc4OC)C(CO)(CO)CO)c3)cc12` [Compound 3002], the EC50 was greater than 1000 nM.
For `CNC(=O)c1c(-c2ccc(F)cc2)oc2cc(N(CC3CC3)S(C)(=O)=O)c(-c3cccc(C(=O)NC(C)(C)C=O)c3)cc12` [Compound 6001], the EC50 was less than 100 nM.
`C#CC1(NC(=O)c2cccc(-c3cc4c(C(=O)NC)c(-c5ccc(F)cc5)oc4cc3N(CC)S(C)(=O)=O)c2)CCCCC1` [Compound 5001] gave an EC50 of less than 100 nM.
`CCN(CC)c1cc2oc(-c3ccc(F)cc3)c(C(=O)NC)c2cc1-c1cccc(C(=O)NCC2(c3ccccc3)CC2)c1` [Compound 1018] was tested, and the EC50 was 100 to 1000 nM.
Work on `CCN(CC)c1cc2oc(-c3ccc(F)cc3)c(C(=O)NC)c2cc1-c1cccc(C(=O)NCCCS(=O)(=O)O)c1` [Compound 1039] yielded an EC50 greater than 1000 nM.
`CCN(c1cc2oc(-c3ccc(F)cc3)c(C(=O)NC)c2cc1-c1cccc(C(=O)NC2(C(F)(F)F)CCCC2)c1)S(C)(=O)=O` [Compound 5002] was tested, and the EC50 was 7 nM.
`CCN(CC)c1cc2oc(-c3ccc(F)cc3)c(C(=O)NC)c2cc1-c1cccc(C(=O)NCCN2CCNC2=O)c1` [Compound 1014] was tested, and the EC50 was less than 100 nM.
`CCN(CC)c1cc2oc(-c3ccc(F)cc3)c(C(=O)NC)c2cc1-c1cccc(C(=O)NCCC2(O)CCCC2)c1` [Compound 1002] was tested, and the EC50 was less than 100 nM.
Work on `CCOC(=O)CC1(NC(=O)c2cccc(-c3cc4c(C(=O)NC)c(-c5ccc(F)cc5)oc4cc3N(CC)CC)c2)CCCCC1` [Compound 1008] yielded an EC50 of less than 100 nM.
For `CCN(CC)c1cc2oc(-c3ccc(F)cc3)c(C(=O)NC)c2cc1-c1cccc(C(=O)N[C@@H]2CCCC[C@@H]2C(=O)O)c1` [Compound 2001], the EC50 was 100 to 1000 nM.
Work on `CCOC(=O)[C@H]1CCCC[C@@H]1NC(=O)c1cccc(-c2cc3c(C(=O)NC)c(-c4ccc(F)cc4)oc3cc2N(CC)CC)c1` [Compound 1007] yielded an EC50 of less than 100 nM.
Work on `CCNc1cc2oc(-c3ccc(F)cc3)c(C(=O)NC)c2cc1-c1cccc(C(=O)NC(CO)(CO)CO)c1` [Compound 3004] yielded an EC50 of less than 100 nM.
`CCOC(=O)[C@@H]1CCCC[C@@H]1NC(=O)c1cccc(-c2cc3c(C(=O)NC)c(-c4ccc(F)cc4)oc3cc2N(CC)CC)c1` [Compound 1004] was tested, and the EC50 was less than 100 nM.
Compound `CNC(=O)c1c(-c2ccc(F)cc2)oc2cc([N+](=O)[O-])c(-c3cccc(C(=O)NC(CO)(CO)CO)c3)cc12` [Compound 3001] has an EC50 of 2540 nM.
For `CCN(CC)c1cc2oc(-c3ccc(F)cc3)c(C(=O)NC)c2cc1-c1cccc(C(=O)NC2(CC(=O)O)CCCC2)c1` [Compound 1046], the EC50 was 22.2 nM.
`CCN(CC)c1cc2oc(-c3ccc(F)cc3)c(C(=O)NC)c2cc1-c1cccc(C(=O)NCCCn2ccnc2)c1` [Compound 1012] gave an EC50 of less than 100 nM.
`CCN(CC)c1cc2oc(-c3ccc(F)cc3)c(C(=O)NC)c2cc1-c1cccc(C(=O)N[C@@]2(C)[C@@H](C(=O)OC)C[C@H]3C[C@@H]2C3(C)C)c1` [Compound 1031] showed an EC50 of 116 nM.
For `CCN(CC)c1cc2oc(-c3ccc(F)cc3)c(C(=O)NC)c2cc1-c1cccc(C(=O)N[C@@H]2C3CCC(C3)[C@@H]2CO)c1` (stereo partly shown) [Compound 1030], the EC50 was less than 100 nM.
In the case of `CCN(c1cc2oc(-c3ccc(F)cc3)c(C(=O)NC)c2cc1-c1cccc(C(=O)N[C@@H]2CCNC2=O)c1)S(C)(=O)=O` [Compound 5003], the EC50 is reported as 100 to 1000 nM.
With `CCN(CC)c1cc2oc(-c3ccc(F)cc3)c(C(=O)NC)c2cc1-c1cccc(C(=O)NCCNS(=O)(=O)c2ccc(C)cc2)c1` [Compound 1016] the EC50 was 32.5 nM.
For `C#CC1(NC(=O)c2cccc(-c3cc4c(C(=O)NC)c(-c5ccc(F)cc5)oc4cc3NCC)c2)CCCCC1` [Compound 4003], the EC50 was less than 100 nM.
In the case of `CCN(CC)c1cc2oc(-c3ccc(F)cc3)c(C(=O)NC)c2cc1-c1cccc(C(=O)NCC2(CO)COC2)c1` [Compound 1037], the EC50 is reported as less than 100 nM.
Compound `CCN(CC)c1cc2oc(-c3ccc(F)cc3)c(C(=O)NC)c2cc1-c1cccc(C(=O)NCC2(COc3ccccc3)CC2)c1` [Compound 1021] has an EC50 of 172 nM.
In the case of `CCN(CC)c1cc2oc(-c3ccc(F)cc3)c(C(=O)NC)c2cc1-c1cccc(C(=O)N[C@H](CC(=O)N[C@H](CC(=O)O)CC(C)C)CC(C)C)c1` [Compound 1044], the EC50 is reported as 100 to 1000 nM.
`CCOP(=O)(O)CCCNC(=O)c1cccc(-c2cc3c(C(=O)NC)c(-c4ccc(F)cc4)oc3cc2N(CC)CC)c1` [Compound 2003] was tested, and the EC50 was greater than 1000 nM.

— patent publication US10570108B2, “Substituted benzofuran compounds for the treatment of hepatitis C” (BRISTOL-MYERS SQUIBB COMPANY, priority 2015, dated 2020)
